Source: patent US20250223307A1, “MDM2/MDMX DOUBLE-TARGET INHIBITOR COMPOUND, PRODRUG, PHARMACEUTICAL COMPOSITION, AND PREPARATION METHOD THEREFOR AND USE THEREOF” (GLOBAL HEALTH DRUG DISCOVERY INSTITUTE, priority 2022, published 2025)

Assays:
[1] = system: Blood cancer cells RS4; 11; assay: CellTiter Glo test: growth inhibition of cells; type: cell-based; settings: Homo sapiens, 11 cells, 72 h, cell viability
Method: Test of Candidate Compounds on Growth Inhibition of Cells Determined by CellTiter Glo
Blood cancer cells RS4; 11 were inoculated into the 96-well cell culture plate through Multidrop 3000 cells per well, with a volume of 100 μL. The final compound concentration ranged from 50 μM to 0.01 μM at 9 concentration gradients and the DMSO final concentration was 0.1%. The cells and compounds were co-incubated in a cell incubator at 37° C. for 72 h, a CellTiter-Glo Luminescent Cell Viability Assay reagent was added 100 μL/well, the cells and compound were uniformly mixed and incubated at room temperature for 10 min, and Envision reading was performed. A sample treated with 50 μM of a positive compound was taken as a positive control and a sample treated with 100 nL of DMSO was taken as a negative control.

MDM2 = MDM2 (Homo sapiens, UniProt Q00987); assay: HTRF test: inhibition of MDM2-p53 protein binding
MDMX = target: T1, MDMX (Homo sapiens, UniProt O15151); assay: HTRF test: inhibition of MDMX-p53 protein binding
T1 sequence (O15151 2-134): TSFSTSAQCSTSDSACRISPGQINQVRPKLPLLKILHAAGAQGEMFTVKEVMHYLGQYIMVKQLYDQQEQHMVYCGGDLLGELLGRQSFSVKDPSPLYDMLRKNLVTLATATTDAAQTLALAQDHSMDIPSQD

Sequence of MDM2 (Q00987 2-138): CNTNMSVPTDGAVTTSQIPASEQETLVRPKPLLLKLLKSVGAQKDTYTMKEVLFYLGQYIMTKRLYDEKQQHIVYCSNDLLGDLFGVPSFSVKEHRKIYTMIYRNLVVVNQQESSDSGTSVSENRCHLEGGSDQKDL

Row | IC50 [1] | IC50 (MDM2) | IC50 (MDMX) | Compound
1 | ≤ 1000 nM | < 10 nM | < 10 nM | O=C1N/C(=C\c2c[nH]c3c(F)c(Cl)ccc23)C(=O)N1C(CO)c1ccc(F)cc1 (stereo not drawn) [Compound 84, (Z)-5-((6-chloro-7-fluoro-1H-indol-3-yl)methylene)-3-(1-(4-fluorophenyl)-2-hydroxyethyl)imidazolidine-2,4-dione]
2 | ≤ 1000 nM | 10 to 100 nM | 10 to 100 nM | C#Cc1ccc(CN2C(=O)N/C(=C\c3c[nH]c4c(F)c(Cl)ccc34)C2=O)cc1 [Compound 17, (Z)-5-((6-chloro-7-fluoro-1H-indol-3-yl)methylene)-3-(4-acetenylbenzyl)imidazolidine-2,4-dione]
3 | ≤ 1000 nM | 10 to 100 nM | 10 to 100 nM | N#Cc1ccc(CN2C(=O)N/C(=C\c3c[nH]c4cc(Cl)ccc34)C2=O)cc1F [Compound 20, (Z)-4-((4-((6-chloro-1H-indol-3-yl)methylene)-2,5-dioxoimidazolidin-1-yl)methyl)-2-fluorobenzonitrile]
4 | ≤ 1000 nM | 10 to 100 nM | 10 to 100 nM | O=C1N/C(=C\c2c[nH]c3c(F)c(Cl)ccc23)C(=O)N1C(CO)c1cc(F)c(Cl)c(F)c1 (stereo not drawn) [Compound 107, (Z)-3-(1-(4-chloro-3,5-difluorophenyl)-2-hydroxyethyl)-5-((6-chloro-7-fluoro-1H-indol-3-yl)methylene)imidazolidine-2,4-dione]
5 | ≤ 1000 nM | 10 to 100 nM | 10 to 100 nM | Cc1c(Cl)ccc2c(/C=C3\NC(=O)N(C(CO)c4ccc(Cl)c(F)c4)C3=O)c[nH]c12 (stereo not drawn) [Compound 78, (Z)-3-(1-(4-chloro-3-fluorophenyl)-2-hydroxyethyl)-5-((6-chloro-7-methyl-1H-indol-3-yl)methylene)imidazolidine-2,4-dione]
6 | ≤ 1000 nM | < 10 nM | < 10 nM | N#Cc1ccc(C(C(=O)NCCO)N2C(=O)N/C(=C\c3c[nH]c4c(F)c(Cl)ccc34)C2=O)cc1 (stereo not drawn) [Compound 58, (Z)-2-(4-((6-chloro-7-fluoro-1H-indol-3-yl)methylene)-2,5-dioxoimidazolidin-1-yl)-2-(4-cyanophenyl)-N-(2-hydroxyethyl)acetamide]
7 | ≤ 1000 nM | 10 to 100 nM | 10 to 100 nM | O=C1N/C(=C\c2c[nH]c3cc(Cl)ccc23)C(=O)N1Cc1ccc(F)cc1 [Compound 3, (Z)-5-((6-chloro-1H-indol-3-yl)methylene)-3-(4-fluorobenzyl)imidazolidine-2,4-dione]
8 | ≤ 1000 nM | < 10 nM | < 10 nM | N#Cc1ccc(C(C(=O)NCCO)N2C(=O)N/C(=C\c3c[nH]c4c(F)c(Cl)ccc34)C2=O)cc1F (stereo not drawn) [Compound 41, (Z)-2-(4-((6-chloro-7-fluoro-1H-indol-3-yl)methylene)-2,5-dioxoimidazolidin-1-yl)-2-(4-cyano-3-fluorophenyl)-N-(2-hydroxyethyl)acetamide]
9 | ≤ 1000 nM | < 10 nM | 10 to 100 nM | N#Cc1cc(F)c(CN2C(=O)N/C(=C\c3c[nH]c4c(F)c(Cl)ccc34)C2=O)cc1F [Compound 36, 4-{[(4Z)-4-[(6-chloro-7-fluoro-1H-indol-3-yl)methylene]-2,5-dioxoimidazolidin-1-yl]methyl}-2,5-difluorobenzonitrile]
10 | 1000 to 10000 nM | 10 to 100 nM | > 100 nM | O=C1N/C(=C\c2c[nH]c3c(F)c(Cl)ccc23)C(=O)N1C(CO)c1cc(F)c(Cl)cc1F (stereo not drawn) [Compound 101, (Z)-3-(1-(4-chloro-2,5-difluorophenyl)-2-hydroxyethyl)-5-((6-chloro-7-fluoro-1H-indol-3-yl)methylene)imidazolidine-2,4-dione]
11 | ≤ 1000 nM | < 10 nM | < 10 nM | Cc1c(Cl)ccc2c(/C=C3\NC(=O)N(Cc4ccc(C#N)cc4)C3=O)c[nH]c12 [Compound 19, (Z)-4-((4-((6-chloro-7-methyl-1H-indol-3-yl)methylene)-2,5-dioxoimidazolidin-1-yl)methyl)benzonitrile]
12 | ≤ 1000 nM | < 10 nM | < 10 nM | N#Cc1ccc(CN2C(=O)N/C(=C\c3c[nH]c4c(F)c(Cl)ccc34)C2=O)cc1F [Compound 14, (Z)-4-((4-((6-chloro-7-fluoro-1H-indol-3-yl)methylene)-2,5-dioxoimidazolidin-1-yl)methyl)-2-fluorobenzonitrile]
13 | ≤ 1000 nM | < 10 nM | < 10 nM | O=C(NCCO)C(c1ccc(F)c(F)c1)N1C(=O)N/C(=C\c2c[nH]c3c(F)c(Cl)ccc23)C1=O (stereo not drawn) [Compound 72, (Z)-2-(4-((6-chloro-7-fluoro-1H-indol-3-yl)methylene)-2,5-dioxoimidazolidin-1-yl)-2-(3,4-difluorophenyl)-N-(2-hydroxyethyl)acetamide]

The next lines start with the compound.

Row | Compound | IC50 [1] | IC50 (MDM2) | IC50 (MDMX)
14 | Cc1c(Cl)ccc2c(/C=C3\NC(=O)N(C(C(=O)NC45CC(O)(C4)C5)c4ccc(F)c(F)c4)C3=O)c[nH]c12 (stereo not drawn) [Compound 57, (Z)-2-(4-((6-chloro-7-methyl-1H-indol-3-yl)methylene)-2,5-dioxoimidazolidin-1-yl)-2-(3,4-difluorophenyl)-N-(3-hydroxylbicyclo[1.1.1]pentan-1-yl)acetamide] | ≤ 1000 nM | < 10 nM | < 10 nM
15 | O=C1N/C(=C\c2c[nH]c3cc(Cl)ccc23)C(=O)N1C(CO)c1ccc(Cl)c(F)c1 (stereo not drawn) [Compound 79, (Z)-5-((6-chloro-1H-indol-3-yl)methylene)-3-(1-(4-chloro-3-fluorophenyl)-2-hydroxyethyl)imidazolidine-2,4-dione] | ≤ 1000 nM | 10 to 100 nM | 10 to 100 nM
16 | N#Cc1ccc(C(C(=O)NCCO)N2C(=O)N/C(=C\c3cn(P(=O)(O)O)c4c(F)c(Cl)ccc34)C2=O)cc1F (stereo not drawn) [Compound 56, (Z)-(6-chloro-3-((1-(1-(4-cyano-3-fluorophenyl)-2-((2-hydroxyethyl)amino)-2-oxyethyl)-2,5-dioxoimidazolidin-4-ylene)methyl)-7-fluoro-1H-indol-1-yl)phosphonic acid] | 1000 to 10000 nM | 10 to 100 nM | 10 to 100 nM
17 | N#Cc1ccc(C(C(=O)NC(CO)CO)N2C(=O)N/C(=C\c3c[nH]c4cc(Cl)ccc34)C2=O)cc1 (stereo not drawn) [Compound 31, (Z)-2-(4-((6-chloro-1H-indol-3-yl)methylene)-2,5-dioxoimidazolidin-1-yl)-2-(4-cyanophenyl)-N-(1,3-dihydroxypropan-2-yl)acetamide] | 1000 to 10000 nM | 10 to 100 nM | 10 to 100 nM
18 | Cc1c(Cl)ccc2c(/C=C3\NC(=O)N([C@H](CO)c4ccc(C#N)cc4)C3=O)c[nH]c12 [Compound 97, (S,Z)-4-(1-(4-((6-chloro-7-methyl-1H-indol-3-yl)methylene)-2,5-dioxoimidazolidin-1-yl)-2-hydroxyethyl)benzonitrile] | ≤ 1000 nM | 10 to 100 nM | 10 to 100 nM
19 | Cc1c(Cl)ccc2c(/C=C3\NC(=O)N(C(C(=O)NC45CCC(O)(CC4)CC5)c4ccc(F)c(F)c4)C3=O)c[nH]c12 (stereo not drawn) [Compound 66, (Z)-2-(4-((6-chloro-7-methyl-1H-indol-3-yl)methylene)-2,5-dioxoimidazolidin-1-yl)-2-(3,4-difluorophenyl)-N-(4-hydroxylbicyclo[2.2.2]octan-1-yl)acetamide] | ≤ 1000 nM | < 10 nM | < 10 nM
20 | O=C1N/C(=C\c2c[nH]c3cc(Cl)ccc23)C(=O)N1C(CO)c1ccc(F)c(F)c1 (stereo not drawn) [Compound 26] | ≤ 1000 nM | < 10 nM | < 10 nM
21 | Cc1c(Cl)ccc2c(/C=C3\NC(=O)N(C(C(=O)NCC45CC(O)(C4)C5)c4ccc(F)c(F)c4)C3=O)c[nH]c12 (stereo not drawn) [Compound 68, (Z)-2-(4-((6-chloro-7-methyl-1H-indol-3-yl)methylene)-2,5-dioxoimidazolidin-1-yl)-2-(3,4-difluorophenyl)-N-((3-hydroxylbicyclo[1.1.1]pentan-1-yl)methyl)acetamide] | ≤ 1000 nM | < 10 nM | < 10 nM
22 | N#Cc1ccc([C@H](CO)N2C(=O)N/C(=C\c3c[nH]c4cc(Cl)ccc34)C2=O)cc1 [Compound 49, (R,Z)-4-(1-(4-((6-chloro-1H-indol-3-yl)methylene)-2,5-dioxoimidazolidin-1-yl)-2-hydroxyethyl)benzonitrile] | ≤ 1000 nM | < 10 nM | 10 to 100 nM
23 | O=C1N/C(=C\c2c[nH]c3cc(Cl)ccc23)C(=O)N1[C@H](CO)c1ccc(F)c(F)c1 [Compound 53, (S,Z)-5-((6-chloro-1H-indol-3-yl)methylene)-3-(1-(3,4-difluorophenyl)-2-hydroxyethyl)imidazolidine-2,4-dione] | 1000 to 10000 nM | < 10 nM | < 10 nM
24 | O=C1N/C(=C\c2c[nH]c3cc(Cl)ccc23)C(=O)N1C(CO)c1ccc(Cl)cc1 (stereo not drawn) [Compound 45, (Z)-5-((6-chloro-1H-indol-3-yl)methylene)-3-(1-(4-chlorophenyl)-2-hydroxyethyl)imidazolidine-2,4-dione] | ≤ 1000 nM | 10 to 100 nM | 10 to 100 nM
25 | Cc1c(Cl)ccc2c(/C=C3\NC(=O)N(C(C(=O)NCCO)c4ccc(Cl)cc4)C3=O)c[nH]c12 (stereo not drawn) [Compound 48, (Z)-2-(4-((6-chloro-7-methyl-1H-indol-3-yl)methylene)-2,5-dioxoimidazolidin-1-yl)-2-(4-chlorophenyl)-N-(2-hydroxyethyl)acetamide] | ≤ 1000 nM | < 10 nM | < 10 nM
